Common to all, as to format: biochemical
Test [1] deals with LAMP spiked with 5×104 copies λ phage DNA. Description: TPW screen with LAMP (1 μL wash candidate added to 10 μL reaction). The note with it: 1 μL candidate in 11 μL total. As to the method:
(§1) LAMP primers (Integrated DNA Technologies (IDT), Coralville, Iowa, USA) were designed, ordered, and added at NEB's recommended concentrations of […] FIP/BIP, 0.2μM F3/B3, and […] LoopF/B.
(§2) Each 96-well plate was sealed and briefly spun. […] Time-to-positive (TTP) was determined when the software's automated baseline corrected fluorescence reached 1000 RFU.
Criterion 1a was investigated directly by performing qPCR and LAMP reactions. Reactions were spiked with λ phage DNA, diluted up to 10 μL, and an additional 1 μL of different wash buffer candidates was added to a total of 11 μL. […] As an experimental control, a “No Additive” condition was tested, which was a 10 μL reaction with optimized reaction conditions and no inhibitors. To control for the effects of a 1 μL dilution on the reaction, a “Water” condition which was an 11 μL reaction with no inhibitors was also tested.

For test [2], the system named is λ phage DNA. Description: Zymo Quick-Viral DNA/RNA kit extraction with additional TPW, qPCR with 2.2× diluted eluent. How it is done: qPCR reactions contained 1× Bio-Rad SsoFast Supermix (1725201, Bio-Rad), PCR primers (IDT) at […] each, and were supplemented with nuclease-free water up to 10 μL. Each 96-well plate (thin-wall clear well, HSP9641, Bio-Rad) was sealed (Microseal B, MSB1001, Bio-Rad) and briefly spun in a Mini Plate Spinner Centrifuge (14-100-141, Fisher Scientific). Heating and real-time imaging were performed on the Bio-Rad CFX-96 Touch Real-Time PCR Detection System by heating to 95° C. for 5 min, cycling 40 times between 95° C. for 15 s, 60° C. for 15 s, and 72° C. for 20 s, and taking a melt-curve analysis. For the E. coli DNA dilution experiment, qPCR was run for 60 cycles. Fluorescence readings were taken at the end of each extension step. Quantification cycle (Cq) was determined when the software's automated baseline corrected fluorescence reached 200 RFU.
Three different silica-column kits were tested, including: Zymo ZR Viral DNA/RNA Kit (outdated protocol, D7021), Zymo Quick-DNA/RNA Kit (updated protocol, D7021), and the QIAquick PCR Purification Kit (28104, Qiagen). For all silica-column kits, fresh collection tubes were used after each spin and centrifugation speeds were set to 16,000×g. Centrifugation was performed on either an Eppendorf 5415D centrifuge (Eppendorf, Hauppauge, N.Y., USA) or a Thermo Fisher Scientific AccuSpin Micro 17R centrifuge (13-100-676). It was noted that the QIAquick protocol calls for 17,900×g, but instead was run at 16,000×g which was the max speed for the Eppendorf 5415D. For both Zymo kits, 750 μL lysed sample was prepared by mixing 125 μL sample with 125 μL Zymo 2×DNA/RNA Shield and 500 μL Viral DNA/RNA Buffer. For the Zymo ZR Viral DNA/RNA kit, 750 μL lysed sample was centrifuge for 1 min, 500 μL Zymo Viral Wash Buffer was centrifuged for 2 min, and 50 μL nuclease-free water was centrifuged for 30 s into a clean 1.5 mL tube. Optionally, either a dry spin or 300 μL TPW was centrifuged for 2 min in between the Viral Wash Buffer and elution steps. […] For the QIAquick PCR Purification Kit, 125 μL sample was mixed with 625 μL Buffer PB without indicator. 750 μL lysed sample was centrifuged for 30 s, followed by 750 μL Buffer PE for 30 s, a dry spin for 1 min, and 50 μL nuclease-free water for 1 min. Optionally, the dry spin was skipped or the dry spin was replaced with a 300 μL TPW and centrifuged for 1 min.
Of our TPW candidates, 1-undecanol was selected for further evaluation because (i) it was non-inhibitory for qPCR and LAMP reactions and (ii) as an alcohol, 1-undecanol may function similarly to ethanol- or isopropanol-based washes. In these experiments (testing criteria 1b and 2), a commercially purified λ phage DNA sample was first diluted to 2.5×10^6 copies and ran an NA extraction using the Zymo Quick-DNA/RNA Viral Kit. The experimental procedure either followed the manufacturer protocol or added an additional 300 μL 1-undecanol wash in between the Viral Wash Buffer and elution step. Using the manufacturer's protocol, the resulting eluent is approximately 49 μL, but with the added TPW the resulting eluent is approximately 48 μL aqueous phase and ˜1-2 μL 1-undecanol phase. To emphasize any potential inhibitory effects, a low dilution of eluent was used. For qPCR, a 2.2×dilution was achieved by adding 4.5 μL of eluent, 0.5 μL primers, and 5 μL qPCR reaction mix. For LAMP, a 2×dilution was achieved by adding 5 μL eluent, 0.5 μL primers, and 4.5 μL reaction mix. […] The ˜1-2 μL TPW separates from the aqueous phase and adheres to the walls of the tube, making it is easy to use a pipette to capture just the eluent.
Background: Quantitative PCR measures a nucleic acid by following its amplification.

Test [3] relates to LAMP spiked with 5×104 copies λ phage DNA. As to the kind of experiment: LAMP reaction inhibition by dilutions of NA extraction kit buffers. The settings on record: for Avg TTP: 9 replicates, non-detects assigned 46.7 min. As to the method:
as §1, §2
Confidence intervals were calculated assuming the populations to be normally distributed and using a t statistic. For buffer inhibition experiments, statistical analysis was performed by a 1-tailed unequal variance t-test (N=9) comparing the water condition (control) to each buffer concentration (H1: the mean is delayed). For the subsequent experiments, a 2-tailed unequal variance t-test (H1: the means are different) was used. […] Although this approach introduces some bias into the analysis, it is believed this is the best representation for handling non-detects (other alternatives include excluding the non-detects or assigning non-detect values to the average of those that amplified).
These two commercial kits in particular were chosen because they both utilize minimal protocols (lysis, wash, elute) with no added steps (e.g. bacterial pellet spins, proteinase K, lysozyme, DNase/RNase, filtration, etc.). Specifically, an experiment was conducted to identify the concentration at which each buffer inhibits qPCR and LAMP.

For the molecule `CCCCCCCCCCCO` [1-undecanol], in test [1] (N.D. = not detected within 40 min), the “Avg TTP” value was found to be 6.70 min. Further, the ΔTTP in test [1] (minus the No additive control) is 0.16 min. In test [2] (2.2× eluent dilution, 3 columns, 9 samples), this molecule gave a Cq of 18.46±0.22 cycles. Further, the qPCR reactions amplified result in test [2] (2.2× eluent dilution, amplified/total) was “all reactions amplified”. Besides, in test [2] (27 reactions (9 columns)), the “average Cq” value worked out at 19.7±2.5 cycles, the “wells with Cq between 18-22 cycles” value is 25/27 and the “wells with a delayed Cq” value is on record as 2/27.

In the case of `CCO` [Ethanol, ethanol], the “Avg TTP” value in test [3] (0.03% buffer in LAMP) was 6.4 min; in test [3] (0.1% buffer in LAMP) it was 6.5 min; in test [3] (0.32% buffer in LAMP) it was 6.6 min; in test [3] (1% buffer in LAMP), 6.9 min; in test [3] (3.2% buffer in LAMP) it was 9.7 min; in test [3] (10% buffer in LAMP) it was 46.7 min. In addition, the ΔTTP in test [3] (0.03% buffer vs water condition (0%)) is reported as 0.1 min; in test [3] (0.1% buffer vs water condition (0%)), 0.1 min; in test [3] (0.32% buffer vs water condition (0%)), 0.2 min; in test [3] (1% buffer vs water condition (0%)) it was 0.5 min; in test [3] (3.2% buffer vs water condition (0%)), 3.3 min; in test [3] (10% buffer vs water condition (0%)), 40.3 min.
